From US20250122174A1 (Shenzhen Yuanli Shenwan Innovative Medicine Co., Ltd., priority 2022, published 2025) come the findings set out here.

Chain of HPK1 (Q92918 1-346 limits assumed): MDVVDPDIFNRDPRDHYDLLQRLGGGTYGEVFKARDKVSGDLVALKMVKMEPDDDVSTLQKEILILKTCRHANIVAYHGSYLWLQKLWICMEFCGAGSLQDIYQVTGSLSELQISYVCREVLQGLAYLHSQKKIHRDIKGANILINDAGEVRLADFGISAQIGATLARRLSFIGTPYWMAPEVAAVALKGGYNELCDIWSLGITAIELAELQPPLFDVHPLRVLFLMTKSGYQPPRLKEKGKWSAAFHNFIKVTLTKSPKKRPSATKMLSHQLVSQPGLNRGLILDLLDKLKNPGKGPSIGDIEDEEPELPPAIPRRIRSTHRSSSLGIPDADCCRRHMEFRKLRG

This assay concerns the target HPK1 (Homo sapiens (Human), UniProt Q92918). In words: HPK1 Inhibition Assay (ADP-Glo kinase assay). The settings on record: ATP 10 μM. In kind it is biochemical. Put shortly: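 ADP-Glo luminescence read-out after 1 h room-temperature kinase reaction with 10 μM ATP and 0.1 μg/ml MBP. Recombinant human HPK1 at 7.5 ng/μl; buffer 40 mM Tris pH 7.5, 20 mM MgCl2. Compounds serially diluted 5-fold over 10 points from 10 mM DMSO stock.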
Molecule `Cc1nc2c(N3CCC[C@H]3CN)c(NC(=O)c3ccc(=O)n(-c4c(F)cccc4F)n3)ccc2n1C` [Example 93, (S)-N-(4-(2-(aminomethyl)pyrrolidin-1-yl)-1,2-dimethyl-1H-benzo[d]imidazol-5-yl)-1-(2,6-difluorophenyl)-6-oxo-1,6-dihydropyridazine-3-carboxamide] gave an IC50 of less than 100 nM.

Consider `Cc1nc2c(N3C[C@H](N)C(F)(F)C3)c(NC(=O)c3ccc(=O)n(-c4c(F)cccc4F)n3)ccc2n1C` [Example 94, (S)-N-(4-(4-amino-3,3-difluoropyrrolidin-1-yl)-1,2-dimethyl-1H-benzo[d]imidazol-5-yl)-1-(2,6-difluorophenyl)-6-oxo-1,6-dihydropyridazine-3-carboxamide], for which the IC50 is less than 100 nM.

In turn, `Cc1nc2c(N3CCC(N)C(F)(F)C3)c(NC(=O)c3ccc(=O)n(-c4c(F)cccc4F)n3)ccc2n1C` (stereo not shown) [Example 95, N-(4-(4-amino-3,3-difluoropiperidin-1-yl)-1,2-dimethyl-1H-benzo[d]imidazol-5-yl)-1-(2,6-difluorophenyl)-6-oxo-1,6-dihydropyridazine-3-carboxamide] came in with an IC50 of less than 100 nM.

In turn, `Cc1nc2c(N3CC(N)CC(F)(F)C3)c(NC(=O)c3ccc(=O)n(-c4c(F)cccc4F)n3)ccc2n1C` (stereo not shown) [Example 96, N-(4-(5-amino-3,3-difluoropiperidin-1-yl)-1,2-dimethyl-1H-benzo[d]imidazol-5-yl)-1-(2,6-difluorophenyl)-6-oxo-1,6-dihydropyridazine-3-carboxamide] displayed an IC50 of less than 100 nM.

For `Cn1c(C2CC2)nc2c(N3CC[C@H](N)C3)c(NC(=O)c3ccc(=O)n(-c4c(F)cccc4F)n3)ccc21` [Example 97, N-{4-[(35)-3-aminopyrrolidin-1-yl]-2-cyclopropyl-1-methyl-1,3-benzodiazol-5-yl}-1-(2,6-difluorophenyl)-6-oxopyridazine-3-carboxamide], the half-maximal inhibitory concentration (IC50) was less than 100 nM.

`Cn1c(C(C)(C)C)nc2c(N3CC[C@H](N)C3)c(NC(=O)c3ccc(=O)n(-c4c(F)cccc4F)n3)ccc21` [Example 98, N-{4-[(3S)-3-aminopyrrolidin-1-yl]-2-tert-butyl-1-methyl-1,3-benzodiazol-5-yl}-1-(2,6-difluorophenyl)-6-oxopyridazine-3-carboxamide] displayed an IC50 of less than 100 nM.

In turn, `Cn1c(C(C)(C)C)nc2c(N3CC[C@@H](N)C3)c(NC(=O)c3ccc(=O)n(-c4c(F)cccc4F)n3)ccc21` [Example 99, (R)-N-(4-(3-aminopyrrolidin-1-yl)-2-(tert-butyl)-1-methyl-1H-benzo[d]imidazol-5-yl)-1-(2,6-difluorophenyl)-6-oxo-1,6-dihydropyridazine-3-carboxamide] displayed an IC50 of less than 100 nM.

In the case of `Cn1c(C(C)(C)C)nc2c(N3CC[C@@H](O)C3)c(NC(=O)c3ccc(=O)n(-c4c(F)cccc4F)n3)ccc21` [Example 102, (R)-N-(4-(2-tert-butyl)-4-(3-hydroxypyrrolidin-1-yl)-1-methyl-1H-benzo 112 midazolezol-5-yl)-1-(2,6-difluorophenyl)-6-oxo-1,6-dihydropyridazine-3-carboxamide], the IC50 was less than 100 nM.

With `Cn1c(C(C)(C)C)nc2c(N3CCC[C@H]3CN)c(NC(=O)c3ccc(=O)n(-c4c(F)cccc4F)n3)ccc21` [Example 103], the IC50 is less than 100 nM.

In turn, `C[C@@H]1CN(c2c(NC(=O)c3ccc(=O)n(-c4c(F)cccc4F)n3)ccc3c2nc(C(C)(C)C)n3C)C[C@@H]1N` [Example 104, N-(4-((3R,4R)-3-amino-4-methylpyrrolidin-1-yl)-2-(tert-butyl)-1-methyl-1H-benzo 112 midazolezol-5-yl)-1-(2,6-difluorophenyl)-6-oxo-1,6-dihydropyridazine-3-carboxamide] returned an IC50 of less than 100 nM.

`Cn1c(C(C)(C)C)nc2c(N3CCC(N)(CO)C3)c(NC(=O)c3ccc(=O)n(-c4c(F)cccc4F)n3)ccc21` (stereo not shown) [Example 105, N-(4-(3-amino-3-(hydroxymethyl)pyrrolidin-1-yl)-2-(tert-butyl)-1-methyl-1H-benzo[d]imidazol-5-yl)-1-(2,6-difluorophenyl)-6-oxo-1,6-dihydropyridazine-3-carboxamide] came in with an IC50 of less than 100 nM.

The molecule `Cc1nc2c(N3CC[C@H](N)C3)c(NC(=O)c3ccc(=O)n(-c4c(F)cccc4F)n3)ccc2n1C1CCN(C)CC1` [Example 106, (S)—N-(4-(3-aminopyrrolidin-1-yl)-2-methyl-1-(1-methylpiperidin-4-yl)-1H-benzo[d]imidazol-5-yl)-1-(2,6-difluorophenyl)-6-oxo-1,6-dihydropyridazine-3-carboxamide] returned an IC50 of less than 100 nM.

On to `Cc1nc2c(N3CC[C@H](N)C3)c(NC(=O)c3ccc(=O)n(-c4c(Cl)cccc4Cl)n3)ccc2n1C` [Example 107, (S)—N-(4-(3-aminopyrrolidin-1-yl)-1,2-dimethyl-1H-benzo[d]imidazol-5-yl)-1-(2,6-dichlorophenyl)-6-oxo-1,6-dihydropyridazine-3-carboxamide], for which the IC50 lay in the range of 100 to 1000 nM.

`CC(C)c1nc2c(N3CC[C@@H](N)C3)c(NC(=O)c3ccc(=O)n(-c4c(F)cccc4F)n3)ccc2n1C` [Example 109, (R)—N-(4-(3-aminopyrrolidin-1-yl)-2-isopropyl-1-methyl-1H-benzo[d]imidazol-5-yl)-1-(2,6-difluorophenyl)-6-oxo-1,6-dihydropyridazine-3-carboxamide] yielded a half-inhibitory concentration (IC50) of less than 100 nM.

`CC(C)c1nc2c(N3C[C@@H](C)[C@@H](N)C3)c(NC(=O)c3ccc(=O)n(-c4c(F)cccc4F)n3)ccc2n1C` [Example 110, N-(4-((3R,4R)-3-amino-4-methylpyrrolidin-1-yl)-2-isopropyl-1-methyl-1H-benzo[d]imidazol-5-yl)-1-(2,6-difluorophenyl)-6-oxo-1,6-dihydropyridazine-3-carboxamide] gave an IC50 of less than 100 nM.

`CC(C)c1nc2c(N3C[C@H](C)[C@@H](N)C3)c(NC(=O)c3ccc(=O)n(-c4c(F)cccc4F)n3)ccc2n1C` [Example 111, N-(4-((3R,4S)-3-amino-4-methylpyrrolidin-1-yl)-2-isopropyl-1-methyl-1H-benzo[d]imidazol-5-yl)-1-(2,6-difluorophenyl)-6-oxo-1,6-dihydropyridazine-3-carboxamide] returned an IC50 of less than 100 nM.

In the case of `CC(C)c1nc2c(N3CC4C[C@]4(N)C3)c(NC(=O)c3ccc(=O)n(-c4c(F)cccc4F)n3)ccc2n1C` (stereo partly drawn) [Example 112, N-(4-((1R)-1-amino-3-azabicyclo[3.1.0]hexan-3-yl)-2-isopropyl-1-methyl-1H-benzo[d]imidazol-5-yl)-1-(2,6-difluorophenyl)-6-oxo-1,6-dihydropyridazine-3-carboxamide], the IC50 was less than 100 nM.

For `CC(C)c1nc2c(N3C[C@H](N)C4(COC4)C3)c(NC(=O)c3ccc(=O)n(-c4c(F)cccc4F)n3)ccc2n1C` [Example 113, (R)-N-(4-(8-amino-2-oxa-6-azaspiro[3.4]octan-6-yl)-2-isopropyl-1-methyl-1H-benzo[d]imidazol-5-yl)-1-(2,6-difluorophenyl)-6-oxo-1,6-dihydropyridazine-3-carboxamide], the concentration for half-maximal inhibition (IC50) was less than 100 nM.

Regarding `CC(C)n1cc2c(N3CC[C@@H](N)C3)c(NC(=O)c3ccc(=O)n(-c4c(F)cccc4F)n3)ccc2n1` [Example 114, (R)-N-(4-(3-aminopyrrolidin-1-yl)-2-isopropyl-2H-indazol-5-yl)-1-(2,6-difluorophenyl)-6-oxo-1,6-dihydropyridazine-3-carboxamide], the IC50 is less than 100 nM.

Molecule `CC(C)c1nc2c(N3CC[C@H](CN)C3)c(NC(=O)c3ccc(=O)n(-c4c(F)cccc4F)n3)ccc2n1C` [Example 115, (R)-N-(4-(3-(aminomethyl)pyrrolidin-1-yl)-2-isopropyl-1-methyl-1H-benzo[d]imidazol-5-yl)-1-(2,6-difluorophenyl)-6-oxo-1,6-dihydropyridazine-3-carboxamide] showed an IC50 of less than 100 nM.

In turn, `CC(C)c1nc2c(N3CC[C@@H](CN)C3)c(NC(=O)c3ccc(=O)n(-c4c(F)cccc4F)n3)ccc2n1C` [Example 116, (S)-N-(4-(3-(aminomethyl)pyrrolidin-1-yl)-2-isopropyl-1-methyl-1H-benzo[d]imidazol-5-yl)-1-(2,6-difluorophenyl)-6-oxo-1,6-dihydropyridazine-3-carboxamide] had an IC50 of less than 100 nM.

For the molecule `CC(C)c1nc2c(N3CC[C@@H](O)C3)c(NC(=O)c3ccc(=O)n(-c4c(F)cccc4F)n3)ccc2n1C` [Example 117, (R)-1-(2,6-difluorophenyl)-N-(4-(3-hydroxypyrrolidin-1-yl)-2-isopropyl-1-methyl-1H-benzo[d]imidazol-5-yl)-6-oxo-1,6-dihydropyridazine-3-carboxamide], the IC50 is less than 100 nM.

For `CC(C)c1nc2c(N3CC4[C@@H](N)[C@@H]4C3)c(NC(=O)c3ccc(=O)n(-c4c(F)cccc4F)n3)ccc2n1C` (stereo partly drawn) [Example 118, N-(4-((1R,5S,6s)-6-amino-3-azabicyclo[3.1.0]hexan-3-yl)-2-isopropyl-1-methyl-1H-benzo[d]imidazol-5-yl)-1-(2,6-difluorophenyl)-6-oxo-1,6-dihydropyridazine-3-carboxamide], the IC50 was less than 100 nM.

In turn, `CC(C)c1nc2c(N3CC4C(N)C4C3)c(NC(=O)c3ccc(=O)n(-c4c(F)cccc4F)n3)ccc2n1C` [Example 119, N-(4-((1R,5S,6r)-6-amino-3-azabicyclo[3.1.0]hexan-3-yl)-2-isopropyl-1-methyl-1H-benzo[d]imidazol-5-yl)-1-(2,6-difluorophenyl)-6-oxo-1,6-dihydropyridazine-3-carboxamide] registered an IC50 of less than 100 nM.

`CC(C)c1nc2c(N3CC[C@@H](N)C3)c(NC(=O)c3nn(-c4c(F)cccc4F)c(=O)cc3Cl)ccc2n1C` [Example 120, (R)-N-(4-(3-aminopyrrolidin-1-yl)-2-isopropyl-1-methyl-1H-benzo[d]imidazol-5-yl)-4-chloro-1-(2,6-difluorophenyl)-6-oxo-1,6-dihydropyridazine-3-carboxamide] returned an IC50 of less than 100 nM.
